Where two headings read alike, the source gives them in different places.
Legend:
[1] = tested on: CD28-dependent T cell growth; assay: Mouse T cell proliferation stimulated with anti-CD28 antibody and PMA (tritiumthymidine uptake); type: cell-based; settings: for IC50: BALB/c mouse T cells, 10 ng/mL PMA and 250 ng/mL anti-CD28 antibody, tritiumthymidine uptake, read-out: CD28-dependent T cell growth suppressive action (IC50); for CD28-dependent T cell growth suppressive action (in words): mouse T cells stimulated with PMA and anti-CD28 antibody
Description: The spleen was aseptically isolated from 6-7-week-old male BALB/c mice (CHARLES RIVER LABORATORIES JAPAN, INC.), and splenocyte suspension was prepared using RPMI1640 medium (manufactured by Sigma-Aldrich Ltd.). After hemolysis by a hypotonic treatment using a mixed solution of 0.83% aqueous ammonium chloride and Tris-HCl buffer (pH 7.65) at 9:1, a T cell concentrated fraction was obtained using a T cell concentrated column (manufactured by R&D systems). A cell suspension prepared using RPMI1640 medium containing 10% fetal calf serum (FCS, manufactured by Sigma-Aldrich Ltd.) was added to a flat-bottomed 96 well microtest plate (manufactured by Becton, Dickinson and Company) at 5×10^5 cells/well. Furthermore, a test compound diluted with a medium to the final concentration of 1-10000 nmol/L, 10 ng/mL PMA (manufactured by Sigma-Aldrich Ltd.) and 250 ng/mL anti-CD28 antibody (manufactured by BD pharmingen) were added, and the mixture was cultured under the conditions of 37° C., 5% carbon dioxide, 95% air for 20 hr. After the completion of culture, tritiumthymidine (specific activity: […], manufactured by MP Biochemicals) was added at 18.5 kBq/well, and the mixture was further cultured for 4 hr. Then, the cells were recovered in a glass fiber filter using a cell harvester (manufactured by Molecular Devices Corp.), the radioactivity taken into the cells was measured using a plate scintillation counter (microbeta 1460, manufactured by PerkinElmer), based on which the mouse T cell growth induced by stimulation with PMA and anti-CD28 antibody was measured. To be specific, suppressing rate (%)=(1−(radioactivity (cpm) of well added with test compound)/(radioactivity (cpm) of well without addition of test compound))×100 was calculated from the average amount of tritiumthymidine uptake (cpm) of T cells in each well added with various concentrations of test compound. In addition, based on the dose response curve obtained by plotting the average tritiumthymidine uptake amount (cpm) or suppressing rate on the vertical axis and the concentration on the transverse axis, the concentration of the compound (IC50) suppressing the value to 50% of that of the control group was determined by nonlinear regression.

[2] = tested on: Biphasic Auricular Edema in Egg Albumin-Induced Mouse; assay: Egg albumin-induced mouse biphasic auricular edema; type: in vivo; settings: for suppressing rate (%) of auricular edema: 3 mg/kg oral for 3 days, 24 hr later, P <0.05; for suppressive action on edema (in words): 3 mg/kg, 24 hr after induction with egg albumin
Description: Using saline (0.5 ml) containing egg albumin (10 μg, manufactured by Sigma-Aldrich Ltd.) and 1 mg of aluminum hydroxide gel, 6 to 7-week-old male BALB/c mice (CHARLES RIVER LABORATORIES JAPAN, INC.) were intraperitoneally immunized. Two weeks later, egg albumin (1.25 μg) was intradermally injected into the auricle of the mice for challenge, whereby biphasic auricular edema was induced 1 hr and 24 hr after the challenge. The compound of the present invention or a pharmaceutically acceptable salt thereof was suspended or dissolved in 0.5% carboxymethylcellulose, and repetitively administered orally at a dose of 0.01-30 mg/kg body weight for 3 days, from 2 days before the antigen challenge to the day of challenge, using an oral gavage needle. As for this model, the thickness of the auricle of the mouse was measured using a dial gauge (manufactured by Ozaki MFG. Co. Ltd.) and used as an index of auricular edema. As regards the thickness of the auricle, each group (n=8) was evaluated using an average value and mean error, with a group administered only with a vehicle being control, and t-test was used for statistical analysis, wherein p value of 0.05 or below was determined to be significant.

[3] = tested on: Experimental Autoimmune Encephalomyelitis in SJL/J Mouse; assay: Experimental autoimmune encephalomyelitis in SJL/J mouse; type: in vivo; settings: 3 weeks from immunization, average EAE score at 14 days after immunization, P <0.05
Description: The 139th-151st peptides (50 μg) of rat-derived proteolipid protein (manufactured by Bachem) was mixed with complete Freund's adjuvant containing killed tuberculosis H37Ra. Using the resulting emulsion, 10-week-old female SJL/J mice (CHARLES RIVER LABORATORIES JAPAN, INC.) were subcutaneously immunized on the back, whereby experimental autoimmune encephalomyelitis (EAE) was developed. The compound of the present invention or a pharmaceutically acceptable salt thereof was suspended or dissolved in 0.5% carboxymethylcellulose (manufactured by Sigma-Aldrich Ltd.), and repetitively administered orally at a dose of 3-30 mg/kg body weight using an oral gavage needle for 3 weeks from the day of immunization. As to this model, the symptoms of EAE were evaluated based on the following judgment criteria using the scores of from 0 to 5.
As regards the EAE score, each group (n=10) was evaluated using an average value and mean error, with a group administered only with a vehicle being control, and Mann-Whitney U test was used for statistical analysis, wherein p value of 0.05 or below was determined to be significant. In the following, the suppressive action of the compound of the present invention on EAE is shown by the suppressing rate (%) calculated from the average EAE score at 14 days after the immunization. […] From the results, the compound is considered effective for encephalomyelitis, multiple sclerosis and the like.

[4] = tested on: TYPE II Collagen-Induced Arthritis in DBA/1J Mouse; assay: Type II collagen-induced arthritis in DBA/1J mouse; type: in vivo; settings: 840 h; for inhibition in vivo at 3 mg/kg: 3 mg/kg oral, 2 weeks from booster, average arthritis score at 35 days after primary immunization, P <0.05, read-out: suppressing rate (%) of arthritis score
Description: Bovine Type II collagen (purchased from collagen technical workshop) (100-200 μg) was mixed with complete Freund's adjuvant (manufactured by Sigma-Aldrich Ltd.) containing killed tuberculosis H37Ra. Using the resulting emulsion, 6 to 7-week-old male DBA/1J mice (CHARLES RIVER LABORATORIES JAPAN, INC.) were subcutaneously immunized at the tail root twice at 3 week intervals, whereby arthritis was developed. A test compound was suspended or dissolved in 0.5% carboxymethylcellulose (manufactured by Sigma-Aldrich Ltd.), and repetitively administered orally at a dose of 0.1-30 mg/kg body weight using an oral gavage needle for 2 weeks from the day of booster. As to this model, the symptoms of arthritis of four limbs were evaluated based on the following judgment criteria using the scores of from 0 to 4. The arthritis score of each mouse was shown by the total of the scores of four limbs (maximum: 16 points).
As regards the arthritis score, each group (n=5-6) was evaluated using an average value and mean error, with a group administered only with a vehicle being control, and Mann-Whitney U test was used for statistical analysis, wherein p value of 0.05 or below was determined to be significant. In the following, the suppressive action of the compound of the present invention on mouse collagen induced arthritis is shown by the suppressing rate (%) (1−(average arthritis score of compound administration group)/(average arthritis score of control group)×100) calculated from the average arthritis score at 35 days after the primary immunization.

[5] = tested on: Mouse Graft-Versus-Host Reaction (GvHR); assay: Mouse graft-versus-host reaction (GvHR); type: in vivo; settings: P <0.05 vs vehicle
Description: Cyclophosphamide (manufactured by Shionogi & Co., Ltd.) is administered to male BDF1 recipient mouse (8-week-old, CHARLES RIVER LABORATORIES JAPAN, INC.) at a dose of 300 mg/kg from the tail vein as a pretreatment at 24 hr prior to injection of spleen cells. The spleen was aseptically isolated from male C57BL/6 donor mouse (8-week-old, CHARLES RIVER LABORATORIES JAPAN, INC.), minced in RPMI1640 medium (manufactured by Sigma-Aldrich Ltd.), and passed through a stainless mesh to give a splenocyte single cell suspension. After removal of red blood cells by a hypotonic treatment using a mixed solution of 0.83% aqueous ammonium chloride and Tris-HCl buffer (pH 7.65) at 9:1, splenocytes were washed and suspended in physiological saline to give a splenocyte suspension. The prepared cells were injected at 1×10^8 cells/mouse into the tail vein to induce acute GvHR. The compound of the present invention or a pharmaceutically acceptable salt thereof was suspended or dissolved in 0.5% carboxymethylcellulose, and repetitively administered orally at a dose of 3-30 mg/kg body weight for 28 days from the day of splenocyte injection, and the influence on the survival time was evaluated. After induction of acute GvHR, the survival of each individual was determined every day, and the day of confirmed death was taken as the survival time of each individual. As for the survival time, log-rank test analysis was performed using the group administered with vehicle alone as a control, and the multiplicity was adjusted by the Holm's method, wherein p value of 0.05 or below was determined to be significant.

[6] = 3 mg/kg oral for 28 days from splenocyte injection

Row | SMILES | IC50 ([1]; T-cell) [nM] | CD28-dependent T cell growth suppressive action (in words) [1] | suppressing rate (%) of auricular edema [2] [%] | suppressive action on edema (in words) [2] | inhibition in vivo at 3 mg/kg [4] [%] | also measured
1 | COC(=O)C[C@@H]1N=C(c2ccc(-c3cccc(C#N)c3)cc2)c2c(sc(C)c2C)-n2c(C)nnc21 [Example 8, Methyl (S)-{4-(3′-cyanobiphenyl-4-yl)-2,3,9-trimethyl-6H-thieno[3,2-f][1,2,4]triazolo[4,3-a][1,4]diazepin-6-yl}acetate] | 26 | have a CD28-dependent T cell growth suppressive action | 40.5 | significant suppressive action on edema | 50 | suppressing rate (%) of EAE score ([3]; 10 mg/kg oral): 98%; median survival time [5, 6]: 56 days
2 | COC(=O)C[C@@H]1N=C(c2ccc(-c3ccccc3)cc2)c2c(sc(C)c2C)-n2c(C)nnc21 [Example 61, Methyl (S)-{4-biphenyl-2,3,9-trimethyl-6H-thieno[3,2-f][1,2,4]triazolo[4,3-a][1,4]diazepin-6-yl}acetate] |  | have a CD28-dependent T cell growth suppressive action |  |  |  | IC50 [1]: 55 nM
3 | COC(=O)C[C@@H]1N=C(c2ccc(Nc3ccccc3)cc2)c2c(sc(C)c2C)-n2c(C)nnc21 [Example 120, Methyl (S)-{2,3,9-trimethyl-4-(4-phenylaminophenyl)-6H-thieno[3,2-f][1,2,4]triazolo[4,3-a][1,4]diazepin-6-yl}acetate] | 1.1 | have a CD28-dependent T cell growth suppressive action |  |  | 53.1 | 
4 | CCOC(=O)C[C@@H]1N=C(c2ccc(NCc3ccc(F)cc3)cc2)c2c(sc(C)c2C)-n2c(C)nnc21 [Example 163, Ethyl (S)-(4-{4-[(4-fluorophenyl)methylamino]phenyl}-2,3,9-trimethyl-6H-thieno[3,2-f][1,2,4]triazolo[4,3-a][1,4]diazepin-6-yl)acetate] | 70 | have a CD28-dependent T cell growth suppressive action | 44.5 | significant suppressive action on edema | 57.4 | suppressing rate (%) of EAE score ([3]; 30 mg/kg oral): 60%; median survival time ([5]; 10 mg/kg oral for 28 days from splenocyte injection): 19 days
5 | COC(=O)C[C@@H]1N=C(c2ccc(NCc3ccccc3)cc2)c2c(sc(C)c2C)-n2c(C)nnc21 [Example 167, Methyl (S)-{4-(4-benzylaminophenyl)-2,3,9-trimethyl-6H-thieno[3,2-f][1,2,4]triazolo[4,3-a][1,4]diazepin-6-yl}acetate] | 29 | have a CD28-dependent T cell growth suppressive action | 30.1 | significant suppressive action on edema | 61.4 | suppressing rate (%) of EAE score ([3]; 3 mg/kg oral): 62%; median survival time [5, 6]: 56 days
6 | Cc1sc2c(c1C)C(c1ccc(-c3cccc(C#N)c3)cc1)=NCc1nnc(C)n1-2 [Example 253, 4-(3′-cyanobiphenyl-4-yl)-2,3,9-trimethyl-6H-thieno[3,2-f][1,2,4]triazolo[4,3-a][1,4]diazepin] | 100 | have a CD28-dependent T cell growth suppressive action |  |  |  | inhibition in vivo at 10 mg/kg ([4]; po, read-out: suppressing rate (%) of arthritis score): 46.4%
7 | COC(=O)C[C@@H]1N=C(c2ccc(NC(=O)CCc3ccccc3)cc2)c2c(sc(C)c2C)-n2c(C)nnc21 [Example 311, Methyl (S)-{2,3,9-trimethyl-4-[4-(3-phenylpropionylamino)phenyl]-6H-thieno[3,2-f][1,2,4]triazolo[4,3-a][1,4]diazepin-6-yl}acetate] | 25 | have a CD28-dependent T cell growth suppressive action |  |  | 85.2 | 
8 | C=CC[C@@H]1/C=C(\C)C[C@H](C)C[C@H](OC)[C@H]2O[C@@](O)(C(=O)C(=O)N3CCCC[C@H]3C(=O)O[C@H](/C(C)=C/[C@@H]3CC[C@@H](O)[C@H](OC)C3)[C@H](C)[C@@H](O)CC1=O)[C@H](C)C[C@@H]2OC [Tacrolimus, tacrolimus, reference compound] | > 1000 |  |  |  |  | inhibition of T cell growth at 1 μM (in words) ([1]; 1 μM, calcineurin inhibitor): hardly inhibits the growth even at 1 μM

From patent US8044042B2, “Thienotriazolodiazepine compound and medicinal use thereof” (Mitsubishi Tanabe Pharma Corporation, priority 2005, dated 2011)
